Holding throughout (assay): Antifungal MIC/MFC, 96 well broth dilution
Assay type in all cases: cell-based

One assay concerns Cryptococcus neoformans. The conditions noted are these: C. neoformans, 48-96 hr in vitro. How it is done: (§1) Bacterial cultures were obtained from the American Type Culture Collection (ATCC), except for Streptococcus pyogenes, which was started from a Difco Bactrol disc. The other organisms were Enterococcus faecalis, Staphylococcus aureus, Escherichia coli, Salmonella typhimurium and Pseudomonas aeruginosa. Cultures were grown in Luria-Bertani (LB) broth. Fungi were obtained from Carolina Biological Supply Company (Aspergillus niger, Candida albicans and Cryptococcus neoformans); Presque Isle Cultures, Erie Pa. (Microsporum gypseum); or from ATCC (Penicillium marneffei). Fungal cultures were maintained in Sabouraud dextrose broth (SDB) or agar (SDA). All media components came from Difco.
(§2) Tests were done in flat-bottomed 96 well cell culture plates (Costar). All samples were done in duplicate. Eryngial was suspended in culture medium plus 0.04% Triton-X to make a 2% (20 mg/ml) suspension, which was passed through a 0.22 μm filter to make a uniform emulsion. Serial doubling dilutions of eryngial in culture medium plus 0.04% Triton-X were prepared, and 75 μl was added to each well. 75 μl of cell or spore suspensions in culture medium also were added to each well. The final concentration of Triton-X was 0.02%, and the final concentration of eryngial was 1% (10 mg/ml) at the highest concentration tested.
(§3) Dimethyl sulfoxide (DMSO) also was used as a solvent for eryngial. A solution of 12.5% eryngial in DMSO was the initial solution. Doubling dilutions were carried out in DMSO. The DMSO-eryngial solutions were diluted 100-fold into growth medium, resulting in a final concentration of 1% DMSO, and 0.125% (1,250 μg/ml) eryngial as the highest concentration tested.
(§4) The yeast form fungi, Candida albicans and Cryptococcus neoformans, were grown overnight in SDB. Cell density was determined by counting in a hemacytometer. Cells were diluted in fresh SDB to a density of 10^4/ml, and 75 μl, or 7.5×10^2 cells, was added to each well. The filamentous form fungi, Aspergillus niger, Microsporum gypseum and Penicillium marneffei, were grown on SDA until spores formed. The surface of the culture was rinsed vigorously with sterile distilled water to make a spore suspension, which was counted with a hemacytometer. The spores were diluted into SDB at 10^4/ml, and 75 μl, or 7.5×10^2 spores, were added to each well. The 96 well plates were incubated at room temperature in a humidified chamber for up to 96 hr, and culture growth was monitored microscopically. Growth was documented by photomicrographs at 24 hr intervals, and by determining OD630 in the microplate reader as for the bacterial cultures.
(§5) To determine whether eryngial was merely inhibiting growth of the bacteria and fungi, or whether it also was having a killing effect, the minimum bactericidal concentrations (MBC, μg/ml) or minimum fungicidal concentrations (MFC, μg/ml) were determined. This was done by removing a 50 μl sample from a well after 24 hr (bacteria) or 96 hr (fungi) and diluting the samples in 5 ml of fresh culture medium. These tubes then were incubated at the appropriate temperature for 24-96 hr and observed for any signs of growth.

A further assay relates to Penicillium marneffei. The conditions noted are these: Talaromyces marneffei, P. marneffei, 48-96 hr in vitro. As to the method: as §1, §2, §3, §4, §5
In another assay the test system is Candida albicans. The following applies: C. albicans, 48-96 hr in vitro. How it is done: as §1, §2, §3, §4, §5
The subject of the next assay is Microsporum gypseum. The following applies: Nannizzia gypsea, M. gypseum, 48-96 hr in vitro. As to the method: as §1, §2, §3, §4, §5
Another assay concerns Aspergillus niger. The following applies: A. niger; MIC and MFC not determined. How it is done:
as §1, §2, §3, §4, §5

Molecules are shown by their SMILES. In brackets after ≈: the same amount, converted by molar mass.

Broadly, the MIC is the smallest concentration in the dilution series that meets the test's criterion for growth inhibition. Read a high MIC as a need for much substance. For `CCCCCCCCC/C=C/C=O` [Eryngial, trans-2-dodecenal], the MIC is 78 µg/mL (≈ 428 µM) in the assay on Cryptococcus neoformans, 39 µg/mL (≈ 214 µM) in the assay with Penicillium marneffei, 391 µg/mL (≈ 2140 µM) against Candida albicans and 39 µg/mL (≈ 214 µM) against Microsporum gypseum. Also, the MBC with Cryptococcus neoformans (table title says MFCs) was 78 µg/mL (≈ 428 µM); in the assay on Penicillium marneffei (table title says MFCs), 39 µg/mL (≈ 214 µM); against Candida albicans (table title says MFCs), 391 µg/mL (≈ 2140 µM); in the assay on Microsporum gypseum (table title says MFCs), 39 µg/mL (≈ 214 µM). The “growth in dilutions of the test compound” value in the assay on Aspergillus niger is recorded as “growth, albeit reduced, occurred in all dilutions”.

The values above are taken from patent US9545386B2, “Methods of treating infectious diseases” (SLIPPERY ROCK UNIVERSITY FOUNDATION, INC., priority 2007, dated 2017).
